This passage reports EC50 and Emax results from patent publication US11358956B2, “Compounds containing polysubstituted benzo[d][1,3]oxathiole, benzo[d][1,3]oxathiole 3-oxide or benzo[d][1,3]oxathiole 3,3-dioxide and methods/uses thereof as agonists of G protein-coupled receptor 119” (PRAMANA PHARMACEUTICALS INC., priority 2017, dated 2022).

Where two headings read alike, the source gives them in different places.

Assay [1] deals with T1, human GPR119 receptor (Homo sapiens, UniProt Q8TDV5).
T1 construct: host or cells: CHO
T1 sequence (Q8TDV5 1-335): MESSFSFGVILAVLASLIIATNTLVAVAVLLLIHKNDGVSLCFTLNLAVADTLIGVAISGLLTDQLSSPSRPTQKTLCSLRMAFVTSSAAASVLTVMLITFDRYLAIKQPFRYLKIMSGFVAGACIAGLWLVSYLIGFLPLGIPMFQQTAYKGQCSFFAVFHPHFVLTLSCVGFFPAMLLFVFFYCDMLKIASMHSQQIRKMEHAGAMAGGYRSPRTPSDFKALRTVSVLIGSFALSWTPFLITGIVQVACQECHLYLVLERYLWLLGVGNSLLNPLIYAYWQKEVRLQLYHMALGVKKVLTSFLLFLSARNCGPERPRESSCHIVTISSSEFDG
The assay is described as follows: LANCE Ultra cAMP assay: stimulation of GPR119-mediated cAMP production in CHO cells stably expressing human GPR119 receptor. It counts as cell-based. On the procedure:
The potency of GPR119 receptor agonists was assessed by measuring the stimulation of GPR119-mediated cAMP production with LANCE Ultra cAMP assay (Perkin Elmer, TRF0264) in CHO cells stably expressing human GPR119 receptor (Chantest, cat. #A633). CHO-GPR119 cells were cultured in DMEM/F12 medium supplemented with 10% FBS and 1% NEAA at 37° C., 5% CO2, aliquoted and frozen in liquid nitrogen.
For assay, cells were thawed in a water bath at 37° C., washed in Hank's Balanced Salt Solution (HBSS) and resuspended in Stimulation Buffer 1 (SB1) for 30 min: 5 mM HEPES, pH 7.2-7.4, 0.1% BSA in HBSS. […] The ULight-anti-cAMP antibody (Perkin Elmer, TRF0264) was added to the cell suspension making Mix [Cell suspension/4× ULight-anti-cAMP antibodies]. The resulting cell suspension Mix was plated to 384-well assay plates (Corning, white low volume, #3674) 5 µL/well. The assay plate was centrifuged 200 g, 5 sec.
Serial dilution (100×) of tested compounds were prepared in DMSO in the range of from 30 nM to 1 mM with half-log step in 384-well plates (Greiner, 781280) using Biomek 2000. 10 test concentrations in two repeats were prepared for each CRC. It was diluted 50 times in SB1 and each tested concentration was added to cells in the assay plate—5 µL/well. The assay plate was incubated 30 minutes at room temperature on a shaker, 250 rpm to allow GPR119 receptor stimulation. The cAMP level was determined according to the standard kit supplier protocol (PerkinElmer, cat. #TRF0264).
The stock solution of the Eu-cAMP tracer (Perkin Elmer, TRF0264) was diluted 1:100 in cAMP Detection Buffer (Perkin Elmer, TRF0264), making 2× working concentration and added to the assay plate, 10 μL per well. Assay plate was centrifuged 180 g, 1 sec. Then the assay plate was incubated for 60′ at room temperature on shaker, 250 rpm to allow cAMP detection. The TR-FRET signal was measured at Ex-340 nm/Em-615 and Ex-340 nm/Em-665 nm on the reader Tecan M1000. 0% of cAMP stimulation corresponds to the cells with DMSO only, 100% of cAMP stimulation corresponds to the cells with […] Forskolin. The EC50 value defined as the concentration of the drug that gives half-maximal response, were calculated using GraphPad Prizm 5.0 software with forskolin was used as references at each test. Entries 1-17 in Table 2A and entries 1-14 in Table 2B show the biological activity of certain representative compounds using the protocol as described above.
Background: In TR-FRET formats the signal depends on donor and acceptor labels being close together.

Assay [2] concerns the target T1, human GPR119 receptor. The assay is described as above. In kind it is cell-based. As to conditions: read-out: % cAMP Max. relative to forscolin.
The mark [3] stands for this setting: Table 2C entries 1-4, modified protocol, 500 cells/well.
Setting [4] is: Table 2A entries 1-17, protocol as described (800,000 cells/mL suspension), CHO-GPR119 cells.

As usually defined, the EC50 is the concentration needed to bring the measured effect to its halfway point. Read a low EC50 as higher potency in that assay. Take `CC1(C)Oc2cc(-c3ccc(OCC4CCN(c5ncc(Cl)cn5)CC4)c(F)c3)ccc2S1(=O)=O` [Example C-5, 5-chloro-2-(4-{[4-(2,2-dimethyl-3,3-dioxido-1,3-benzoxathiol-6-yl)-2-fluorophenoxy]methyl}piperidin-1-yl)pyrimidine]: a half-maximal response at human GPR119 receptor [1] (setting [3]) (EC50) required 68.6 nM. Besides, the Emax at human GPR119 receptor [2] (setting [3]) worked out at 81%.
The compound `NCC(=O)N1CCC(COc2ccc(-c3ccc4c(c3)OCS4(=O)=O)cc2F)CC1` [Example A-17] had an EC50 on human GPR119 receptor [1] (setting [4]) of 10000 nM.
`O=S1(=O)c2ccc(-c3ccc(OCC4CCN(c5ncc(Cl)cn5)CC4)c(F)c3)cc2OC12CCCC2` [Example C-8, 5-chloro-2-(4-{[4-(3,3-dioxidospiro[1,3-benzoxathiole-2,1′-cyclopentan]-6-yl)-2-fluorophenoxy]methyl}piperidin-1-yl)pyrimidine] had an EC50 at human GPR119 receptor [1] (setting [3]) of 114 nM. Further, at human GPR119 receptor [2] (setting [3]), the Emax is 66%.
In the case of `O=C(O)CN1CCC(COc2ccc(-c3ccc4c(c3)OCS4(=O)=O)cc2F)CC1` [Example A-23, 2-(4-((4-(3,3-Dioxido-2H-benzo[d][1,3]oxathiol-6-yl)-2-fluorophenyoxy) Methyl)-piperidin-1-yl)acetic Acid], at human GPR119 receptor [1] (setting [4]), the response was half-maximal at 7040 nM (EC50). For the same compound, the Emax at human GPR119 receptor [2] (Table 2A entries 1-17, protocol as described, 100% = cells with Forskolin, 0% = DMSO only) came out at 66%.
In turn, `O=S1(=O)c2ccc(-c3ccc(OCC4CCN(c5ncc(Cl)cn5)CC4)c(F)c3)cc2OC12CCC2` [Example C-14, 5-chloro-2-(4-{[4-(3,3-dioxidospiro[1,3-benzoxathiole-2,1′-cyclobutan]-6-yl)-2-fluorophenoxy]methyl}piperidin-1-yl)pyrimidine] registered a half-maximal effective concentration (EC50) at human GPR119 receptor [1] (setting [3]) of 29.8 nM. Also, at human GPR119 receptor [2] (setting [3]), the Emax came to 67%.
On the same counts, the results for `O=S1(=O)c2ccc(-c3ccc(OCC4CCN(c5ncc(Cl)cn5)CC4)c(F)c3)cc2OC12CCCCC2` [Example C-11, 5-chloro-2-(4-{[4-(3,3-dioxidospiro[1,3-benzoxathiole-2,1′-cyclohexan]-6-yl)-2-fluorophenoxy]methyl}piperidin-1-yl)pyrimidine] are 33 nM and 25%.
As to `NC(=O)N1CCC(COc2ccc(-c3ccc4c(c3)OCS4(=O)=O)cc2F)CC1` [Example A-20], at human GPR119 receptor [1] (setting [4]), it took 10000 nM to reach a half-maximal effect (EC50).
